The NIST ThermoML archive (doi:10.1016/j.jct.2015.11.005)
± gives the expanded uncertainty stated by the source.

Conditions: Crystal; visual observation

- Normal melting temperature: 156.00 ± 2.1 °C
SMILES: COc1ccc2[nH]c([S+]([O-])Cc3ncc(C)c(OC)c3C)nc2c1 (stereo unspecified) [Omeprazole]
